{"source": "PubChem BioAssay AID2060614", "about": "(Molecular Pharmacology Branch, DTP, NCI, 2025)", "system": "598228-144-R-J1-PDC complex spheroids, viability", "test": "Anticancer human tumor 598228-144-R-J1-PDC patient-derived serous endometrial adenocarcinoma cell line growth inhibition [CLK]", "conditions": "for viability, T/C: stronger effect = lower value", "summary_of_the_method": "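Patient-derived tumor cells grown as complex spheroids with HUVEC endothelial cells and mesenchymal stem cells, treated with drug combinations. Concentrations descend in half-log steps from near clinical Cmax, or from 10 microM if Cmax unknown.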", "key": {"[1]": {"conditions": "curve of first compound, second compound 0.0316 µM"}, "[2]": {"conditions": "curve of first compound, second compound 0.1 µM"}, "[3]": {"conditions": "curve of first compound, second compound 0.316 µM"}, "[4]": {"conditions": "curve of first compound, second compound 1 µM"}, "[5]": {"conditions": "curve of first compound, second compound 3.16 µM"}, "[6]": {"conditions": "curve of first compound, second compound 10 µM"}, "[7]": {"conditions": "second compound 0.0316 µM, first compound 0.0316 µM"}, "[8]": {"conditions": "second compound 0.0316 µM, first compound 0.1 µM"}, "[9]": {"conditions": "second compound 0.1 µM, first compound 0.0316 µM"}, "[10]": {"conditions": "second compound 0.1 µM, first compound 0.1 µM"}, "[11]": {"conditions": "second compound 0.316 µM, first compound 0.0316 µM"}, "[12]": {"conditions": "second compound 0.316 µM, first compound 0.1 µM"}, "[13]": {"conditions": "second compound 1 µM, first compound 0.0316 µM"}, "[14]": {"conditions": "second compound 1 µM, first compound 0.1 µM"}, "[15]": {"conditions": "second compound 3.16 µM, first compound 0.0316 µM"}, "[16]": {"conditions": "second compound 3.16 µM, first compound 0.1 µM"}, "[17]": {"conditions": "second compound 10 µM, first compound 0.0316 µM"}, "[18]": {"conditions": "second compound 10 µM, first compound 0.1 µM"}}, "note": "Where “and” joins values, the source holds several entries; their conditions need not be identical. Equal entries are not always repeated.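 Further: spheroids exposed to compounds for seven days before readout.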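 Wherever viability, T/C is given: 100% = DMSO vehicle control wells.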"}
{"smiles": "Cn1ncnc1[C@H]1c2n[nH]c(=O)c3cc(F)cc(c23)N[C@@H]1c1ccc(F)cc1", "note": "+ CNC(=O)c1ccc(Nc2nc(OC3CCCC3)c3c(-c4ccc5nc(C)oc5c4)c[nH]c3n2)c(OC)c1", "values": [{"measurement": "IC50", "setting": "[1]", "result": "> 100", "unit": "nM"}, {"measurement": "IC50", "setting": "[2]", "result": "> 100", "unit": "nM"}, {"measurement": "IC50", "setting": "[3]", "result": "> 100", "unit": "nM"}, {"measurement": "IC50", "setting": "[4]", "result": "> 100", "unit": "nM"}, {"measurement": "IC50", "setting": "[5]", "result": "> 100", "unit": "nM"}, {"measurement": "IC50", "setting": "[6]", "result": "> 100", "unit": "nM"}, {"measurement": "viability, T/C", "setting": "second compound 0.0316 µM, first compound 0.000316 µM", "result": 111, "unit": "%"}, {"measurement": "viability, T/C", "setting": "second compound 0.0316 µM, first compound 0.001 µM", "result": 118, "unit": "%"}, {"measurement": "viability, T/C", "setting": "second compound 0.0316 µM, first compound 0.00316 µM", "result": 122, "unit": "%"}, {"measurement": "viability, T/C", "setting": "second compound 0.0316 µM, first compound 0.01 µM", "result": 121, "unit": "%"}, {"measurement": "viability, T/C", "setting": "[7]", "result": 114, "unit": "%"}, {"measurement": "viability, T/C", "setting": "[8]", "result": 108, "unit": "%"}, {"measurement": "viability, T/C", "setting": "second compound 0.1 µM, first compound 0.000316 µM", "result": 109, "unit": "%"}, {"measurement": "viability, T/C", "setting": "second compound 0.1 µM, first compound 0.001 µM", "result": 122, "unit": "%"}, {"measurement": "viability, T/C", "setting": "second compound 0.1 µM, first compound 0.00316 µM", "result": 120, "unit": "%"}, {"measurement": "viability, T/C", "setting": "second compound 0.1 µM, first compound 0.01 µM", "result": 121, "unit": "%"}, {"measurement": "viability, T/C", "setting": "[9]", "result": 112, "unit": "%"}, {"measurement": "viability, T/C", "setting": "[10]", "result": 96.8, "unit": "%"}, {"measurement": "viability, T/C", "setting": "second compound 0.316 µM, first compound 0.000316 µM", "result": 114, "unit": "%"}, {"measurement": "viability, T/C", "setting": "second compound 0.316 µM, first compound 0.001 µM", "result": 119, "unit": "%"}, {"measurement": "viability, T/C", "setting": "second compound 0.316 µM, first compound 0.00316 µM", "result": 92, "unit": "%"}, {"measurement": "viability, T/C", "setting": "second compound 0.316 µM, first compound 0.01 µM", "result": 115, "unit": "%"}, {"measurement": "viability, T/C", "setting": "[11]", "result": 118, "unit": "%"}, {"measurement": "viability, T/C", "setting": "[12]", "result": 98.1, "unit": "%"}, {"measurement": "viability, T/C", "setting": "second compound 1 µM, first compound 0.000316 µM", "result": 112, "unit": "%"}, {"measurement": "viability, T/C", "setting": "second compound 1 µM, first compound 0.001 µM", "result": 109, "unit": "%"}, {"measurement": "viability, T/C", "setting": "second compound 1 µM, first compound 0.00316 µM", "result": 107, "unit": "%"}, {"measurement": "viability, T/C", "setting": "second compound 1 µM, first compound 0.01 µM", "result": 117, "unit": "%"}, {"measurement": "viability, T/C", "setting": "[13]", "result": 117, "unit": "%"}, {"measurement": "viability, T/C", "setting": "[14]", "result": 99.3, "unit": "%"}, {"measurement": "viability, T/C", "setting": "second compound 3.16 µM, first compound 0.000316 µM", "result": 101, "unit": "%"}, {"measurement": "viability, T/C", "setting": "second compound 3.16 µM, first compound 0.001 µM", "result": 99.2, "unit": "%"}, {"measurement": "viability, T/C", "setting": "second compound 3.16 µM, first compound 0.00316 µM", "result": 99.7, "unit": "%"}, {"measurement": "viability, T/C", "setting": "second compound 3.16 µM, first compound 0.01 µM", "result": 118, "unit": "%"}, {"measurement": "viability, T/C", "setting": "[15]", "result": 104, "unit": "%"}, {"measurement": "viability, T/C", "setting": "[16]", "result": 105, "unit": "%"}, {"measurement": "viability, T/C", "setting": "second compound 10 µM, first compound 0.000316 µM", "result": 105, "unit": "%"}, {"measurement": "viability, T/C", "setting": "second compound 10 µM, first compound 0.001 µM", "result": 115, "unit": "%"}, {"measurement": "viability, T/C", "setting": "second compound 10 µM, first compound 0.00316 µM", "result": 99.5, "unit": "%"}, {"measurement": "viability, T/C", "setting": "second compound 10 µM, first compound 0.01 µM", "result": 105, "unit": "%"}, {"measurement": "viability, T/C", "setting": "[17]", "result": 82.5, "unit": "%"}, {"measurement": "viability, T/C", "setting": "[18]", "result": 128, "unit": "%"}]}
{"smiles": "CCCS(=O)(=O)Nc1ccc(F)c(C(=O)c2c[nH]c3ncc(-c4ccc(Cl)cc4)cc23)c1F", "note": "+ CN1CCN(c2cc(C(=O)Nc3cc4cc(-c5cnn(C)c5)ccc4cn3)ccn2)CC1", "values": [{"measurement": "IC50", "setting": "[1]", "result": "> 10000", "unit": "nM"}, {"measurement": "IC50", "setting": "[2]", "result": "> 10000", "unit": "nM"}, {"measurement": "IC50", "setting": "[3]", "result": "< 31.6", "unit": "nM"}, {"measurement": "IC50", "setting": "[4]", "result": "< 31.6", "unit": "nM"}, {"measurement": "IC50", "setting": "[5]", "result": "< 31.6", "unit": "nM"}, {"measurement": "IC50", "setting": "[6]", "result": "< 31.6", "unit": "nM"}, {"measurement": "viability, T/C", "setting": "[7]", "result": 114, "unit": "%"}, {"measurement": "viability, T/C", "setting": "[8]", "result": 136, "unit": "%"}, {"measurement": "viability, T/C", "setting": "second compound 0.0316 µM, first compound 0.316 µM", "result": 119, "unit": "%"}, {"measurement": "viability, T/C", "setting": "second compound 0.0316 µM, first compound 1 µM", "result": 145, "unit": "%"}, {"measurement": "viability, T/C", "setting": "second compound 0.0316 µM, first compound 3.16 µM", "result": 115, "unit": "%"}, {"measurement": "viability, T/C", "setting": "second compound 0.0316 µM, first compound 10 µM", "result": 71, "unit": "%"}, {"measurement": "viability, T/C", "setting": "[9]", "result": 132, "unit": "%"}, {"measurement": "viability, T/C", "setting": "[10]", "result": 144, "unit": "%"}, {"measurement": "viability, T/C", "setting": "second compound 0.1 µM, first compound 0.316 µM", "result": 111, "unit": "%"}, {"measurement": "viability, T/C", "setting": "second compound 0.1 µM, first compound 1 µM", "result": 131, "unit": "%"}, {"measurement": "viability, T/C", "setting": "second compound 0.1 µM, first compound 3.16 µM", "result": 112, "unit": "%"}, {"measurement": "viability, T/C", "setting": "second compound 0.1 µM, first compound 10 µM", "result": 72.5, "unit": "%"}, {"measurement": "viability, T/C", "setting": "[11]", "result": 20.5, "unit": "%"}, {"measurement": "viability, T/C", "setting": "[12]", "result": 23.8, "unit": "%"}, {"measurement": "viability, T/C", "setting": "second compound 0.316 µM, first compound 0.316 µM", "result": 19.9, "unit": "%"}, {"measurement": "viability, T/C", "setting": "second compound 0.316 µM, first compound 1 µM", "result": 15.7, "unit": "%"}, {"measurement": "viability, T/C", "setting": "second compound 0.316 µM, first compound 3.16 µM", "result": 17.3, "unit": "%"}, {"measurement": "viability, T/C", "setting": "second compound 0.316 µM, first compound 10 µM", "result": 15.5, "unit": "%"}, {"measurement": "viability, T/C", "setting": "[13]", "result": 1.62, "unit": "%"}, {"measurement": "viability, T/C", "setting": "[14]", "result": 1.8, "unit": "%"}, {"measurement": "viability, T/C", "setting": "second compound 1 µM, first compound 0.316 µM", "result": 2.03, "unit": "%"}, {"measurement": "viability, T/C", "setting": "second compound 1 µM, first compound 1 µM", "result": 1.5, "unit": "%"}, {"measurement": "viability, T/C", "setting": "second compound 1 µM, first compound 3.16 µM", "result": 2.94, "unit": "%"}, {"measurement": "viability, T/C", "setting": "second compound 1 µM, first compound 10 µM", "result": 4.26, "unit": "%"}, {"measurement": "viability, T/C", "setting": "[15]", "result": 2.08, "unit": "%"}, {"measurement": "viability, T/C", "setting": "[16]", "result": 6.53, "unit": "%"}, {"measurement": "viability, T/C", "setting": "second compound 3.16 µM, first compound 0.316 µM", "result": 1.71, "unit": "%"}, {"measurement": "viability, T/C", "setting": "second compound 3.16 µM, first compound 1 µM", "result": 2.24, "unit": "%"}, {"measurement": "viability, T/C", "setting": "second compound 3.16 µM, first compound 3.16 µM", "result": 5.08, "unit": "%"}, {"measurement": "viability, T/C", "setting": "second compound 3.16 µM, first compound 10 µM", "result": 7.6, "unit": "%"}, {"measurement": "viability, T/C", "setting": "[17]", "result": 1.08, "unit": "%"}, {"measurement": "viability, T/C", "setting": "[18]", "result": 0.79, "unit": "%"}, {"measurement": "viability, T/C", "setting": "second compound 10 µM, first compound 0.316 µM", "result": 1.22, "unit": "%"}, {"measurement": "viability, T/C", "setting": "second compound 10 µM, first compound 1 µM", "result": 1.42, "unit": "%"}, {"measurement": "viability, T/C", "setting": "second compound 10 µM, first compound 3.16 µM", "result": 3.13, "unit": "%"}, {"measurement": "viability, T/C", "setting": "second compound 10 µM, first compound 10 µM", "result": 6.03, "unit": "%"}]}
{"smiles": "C=C(F)C(=O)N1CCN(c2nc(OCC3CCCN3C)nc3c2CCN(c2cccc4cccc(Cl)c24)C3)CC1CC#N", "note": "(stereo unspecified)", "values": [{"measurement": "viability, T/C", "setting": "compound 0.0316 µM", "result": "91% and 112%"}, {"measurement": "viability, T/C", "setting": "compound 0.1 µM", "result": "107% and 89.4%"}, {"measurement": "viability, T/C", "setting": "compound 0.316 µM", "result": "97.2% and 105%"}, {"measurement": "viability, T/C", "setting": "compound 1 µM", "result": "109% and 103%"}, {"measurement": "viability, T/C", "setting": "compound 3.16 µM", "result": "66.6% and 68.1%"}, {"measurement": "viability, T/C", "setting": "compound 10 µM", "result": "0.83% and 0.61%"}, {"measurement": "IC50", "setting": "curve of compound", "result": "4230 nM and 4300 nM"}]}
